The assay deals with Induced myeloid leukemia cell differentiation protein Mcl-1 (Homo sapiens, UniProt Q07820). Kind of assay: Inhibition of human recombinant MCL-1 (174 to 236) expressed in Escherichia coli BL21(DE3) using 6FAM-GELEVEFATQLRRFGDKLN as substrate after 15 mins by fluorescence polarization Assay. On the technique in general: Polarisation of emitted light reports the rotation of a fluorescent probe.
Induced myeloid leukemia cell differentiation protein Mcl-1, sequence (Q07820 whole entry): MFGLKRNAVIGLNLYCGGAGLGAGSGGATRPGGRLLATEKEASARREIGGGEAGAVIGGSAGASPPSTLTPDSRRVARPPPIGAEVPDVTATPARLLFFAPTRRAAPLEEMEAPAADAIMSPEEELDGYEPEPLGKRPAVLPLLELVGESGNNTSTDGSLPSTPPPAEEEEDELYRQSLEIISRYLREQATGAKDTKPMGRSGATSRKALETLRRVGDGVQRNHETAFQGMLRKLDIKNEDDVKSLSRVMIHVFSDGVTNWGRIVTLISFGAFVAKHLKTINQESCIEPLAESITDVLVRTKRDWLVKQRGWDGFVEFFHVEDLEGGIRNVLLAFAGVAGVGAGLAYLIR
By IC50 is commonly meant the concentration needed to halve the response being measured. With `Cc1ccc(S(=O)(=O)Nc2ccccc2-c2ccc(O)c(C(=O)O)c2)cc1`, the IC50 was greater than 25000 nM.
The result for `O=C(O)c1cc(-c2ccc(OCc3ccccc3)cc2)ccc1O` reads 2200 nM; that for `Oc1nc2c(ccc3ccccc32)o1`, 130000 nM.
For `CS(=O)(=O)Nc1ccccc1-c1ccc(O)c(C(=O)O)c1` the value was 45000 nM.
For `Cc1ccc(-c2ccc(C(=O)O)c(NS(=O)(=O)c3cccc(N4CCOCC4)c3)c2)c2ccccc12` the value was 200 nM; for `O=C(O)c1ccc(-c2cccc3ccccc23)cc1NS(=O)(=O)c1ccccc1`, 1000 nM; for `Cc1ccc(-c2ccc(O)c(C(=O)O)c2)cc1C`, 6200 nM.
Consider `Cc1ccc(-c2ccc(C(=O)O)c(NS(=O)(=O)c3ccccc3)c2)cc1`, for which the IC50 was found to be 4900 nM.
For `CCC(C)c1ccc(S(=O)(=O)Nc2cc(-c3ccc(C)c4ccccc34)ccc2C(=O)O)cc1` (stereo not given) the value was 1200 nM; for `Cc1ccc(-c2ccc(C(=O)O)c(NS(=O)(=O)c3ccc(OCCCN4CCOCC4)cc3)c2)c2ccccc12`, 60 nM; for `O=C(O)c1cc(-c2ccccc2OCc2ccccc2)ccc1O`, 7200 nM.
The result for `Cc1ccc(-c2ccc(C(=O)O)c(NS(=O)(=O)c3ccc(C(=O)N(C)C)cc3)c2)c2ccccc12` reads 80 nM.
For `Cc1ccc(-c2ccc(C(=O)O)c(NS(=O)(=O)c3ccc(Oc4ccccc4)cc3)c2)c2ccccc12`, the IC50 came out at 500 nM.
The result for `CCCCOc1ccc(F)c(-c2ccc(O)c(C(=O)O)c2)c1` reads 1100 nM; that for `Cc1ccc(-c2ccc(C(=O)O)c(NS(=O)(=O)c3ccccc3)c2)c2ccccc12`, 400 nM; that for `CN(C)c1cccc2ccc(O)cc12`, 280000 nM.
For `O=C(O)c1cc(-c2ccc3ncccc3c2)ccc1O` the value was 22000 nM.
For `O=C(O)c1cc(-c2cccc3ccccc23)ccc1O` the value was 31000 nM.
Turning to `Cc1ccc(-c2ccc(C(=O)O)c(NS(=O)(=O)c3ccc(OCCn4cccn4)cc3)c2)c2ccccc12`, the IC50 was determined as 30 nM.
For `Nc1cccc(-c2ccc(O)c(C(=O)O)c2)c1` the value was 190000 nM; for `O=C(O)c1cc(-c2ccccc2COc2cccc(C(F)(F)F)c2)ccc1O`, 670 nM.
For `O=C1CC(c2cccc(C(F)(F)F)c2)=NN1` the value was 70000 nM; for `C=Cc1ccc(C(=O)OCC)c(NS(=O)(=O)c2ccccc2)c1`, 3400 nM.
The result for `Cc1ccc(-c2ccc(C(=O)O)c(NS(=O)(=O)c3ccc(N4CCOCC4)cc3)c2)c2ccccc12` reads 110 nM; that for `O=C(O)c1cc(-c2ccccc2OCc2ccccc2Cl)ccc1O`, 780 nM; that for `CCCCCc1ccc(S(=O)(=O)Nc2cc(-c3ccc(C)c4ccccc34)ccc2C(=O)O)cc1`, 300 nM.
As to `CCCc1ccc(-c2ccc(O)c(C(=O)O)c2)cc1`, the IC50 stood at 3300 nM.
For `Cc1ccc(-c2ccc(O)c(C(=O)O)c2)cc1` the value was 73000 nM; for `O=C(O)c1cc(-c2ccccc2)ccc1O`, 34000 nM; for `Cc1ccc(-c2ccc(C(=O)O)c(NS(=O)(=O)c3ccc(NC(=O)NCC(C)C)cc3)c2)c2ccccc12`, 150 nM.
`CC(C)(C)OCc1ccccc1-c1ccc(O)c(C(=O)O)c1`: the IC50 is greater than 25000 nM.
For `O=C(O)c1ccc(-c2cccc3ncccc23)cc1NS(=O)(=O)c1ccccc1` the value was 37000 nM; for `Cc1cccc(-c2ccc(C(=O)O)c(NS(=O)(=O)c3ccccc3)c2)c1`, 1800 nM; for `O=C(O)c1cc(-c2ccccc2COc2cccc3ccccc23)ccc1O`, 570 nM.
The result for `Cc1ccccc1-c1ccc(O)c(C(=O)O)c1` reads 22000 nM.

The values above are taken from ChEMBL document CHEMBL3124895, “Fragment-based discovery of potent inhibitors of the anti-apoptotic MCL-1 protein” (Bioorg Med Chem Lett, 2014).
